Like-named read-outs stand apart in the source and are kept apart here.
Tests used:
[1] = target: T1, carrot (Daucus carota L. cv Danvers) aspartokinase form II (AKII, Peak II; threonine-sensitive) of the bifunctional AK-HSDH protein (Daucus carota, UniProt P37142); experiment: Aspartokinase activity, hydroxamate method (second eluting DEAE peak, AKII); assay type: biochemical
T1 construct: AK was purified by a series of column chromatography steps; endogenous in cells; host or cells: carrot (Daucus carota L. cv Danvers) cell suspension culture, protein partly purified by gel filtration and DEAE chromatography
T1 sequence (P37142 88-921): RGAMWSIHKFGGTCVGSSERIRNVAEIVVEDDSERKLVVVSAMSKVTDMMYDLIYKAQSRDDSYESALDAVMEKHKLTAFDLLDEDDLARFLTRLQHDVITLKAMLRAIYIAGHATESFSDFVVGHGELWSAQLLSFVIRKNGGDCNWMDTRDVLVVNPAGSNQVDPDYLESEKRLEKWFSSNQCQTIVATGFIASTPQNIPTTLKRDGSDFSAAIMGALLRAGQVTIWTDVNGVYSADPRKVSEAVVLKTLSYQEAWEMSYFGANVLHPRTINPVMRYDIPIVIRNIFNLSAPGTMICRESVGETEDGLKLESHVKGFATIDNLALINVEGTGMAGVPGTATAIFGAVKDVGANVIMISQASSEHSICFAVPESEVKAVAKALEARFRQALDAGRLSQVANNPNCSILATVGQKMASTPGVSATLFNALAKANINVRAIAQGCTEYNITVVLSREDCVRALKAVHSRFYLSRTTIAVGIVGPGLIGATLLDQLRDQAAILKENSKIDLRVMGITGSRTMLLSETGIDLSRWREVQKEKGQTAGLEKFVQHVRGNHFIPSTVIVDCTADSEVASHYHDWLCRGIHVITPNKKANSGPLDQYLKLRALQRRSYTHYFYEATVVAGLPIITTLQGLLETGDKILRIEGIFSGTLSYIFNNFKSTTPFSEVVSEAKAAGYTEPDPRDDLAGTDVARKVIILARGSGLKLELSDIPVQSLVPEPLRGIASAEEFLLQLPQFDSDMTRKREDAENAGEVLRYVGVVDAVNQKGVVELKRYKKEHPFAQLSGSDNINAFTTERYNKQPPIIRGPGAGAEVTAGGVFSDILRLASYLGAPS
Protocol: (§1) The first eluting peak (28-32 min), AKI, was inhibited by lysine and was relatively insensitive to threonine (See Table II). The second peak (44-48 min), AKII, was inhibited by threonine and was relatively insensitive to lysine. These two peaks were kinetically different as well as having different feedback inhibition patterns. The Km(asp) for AKI was approximately 1 mM and for AKII was approximately 9 mM. Experimental conditions could affect which AK activities were observed. AK activity inhibited by lysine was not observed unless lysine was added to the homogenization buffer. If the pH of the sample was lowered to pH 6 before anion exchange, sensitivity to lysine was lost, although the total amount of AK activity remained unchanged. […] Furthermore, the lysine-sensitive activity could not be eluted from the cation-exchange medium with KC1.
AK was purified by a series of column chromatography steps. The cells were harvested after 5 days and disrupted in a nitrogen bomb as described for HSDH (B. Matthews (1989), supra) except that the threonine concentration was reduced to 1 mM and 1 mM lysine was added to the extraction buffer. The crude extract was concentrated by 60% ammonium sulfate before the first gel filtration through Biogel A-0.5 m (4.5 cm×47 cm) equilibrated with 50 mM Tris-HCl pH 7.5, 10 mM 2-mercaptoethanol, 1 mM EDTA, 1 mM lysine, 1 mM threonine and 20% glycerol. Fractions containing AK activity were combined, concentrated by the addition of an equal volume of saturated ammonium sulfate for a second gel filtration through Sephadex G-150 (2.5 cm×39 cm) and equilibrated with the same buffer plus 0.2 M KC1. Fractions with AK activity were combined, concentrated by the addition of an equal volume of saturated ammonium sulfate and dialyzed against 16 mM Tris-HCl pH 7.5, 10 mM 2-mercaptoethanol, 1 mM lysine, 1 mM threonine and 20% glycerol. The dialyzed sample was loaded onto an Altex Spherogel TSK DEAE-5PW column (21.5 mm×15 cm). AK activity was eluted over 65 min with a gradient from 0-0.5 M KCl in 20 mM Mes pH 6, 5 mM 2-mercaptoethanol, 1 mM lysine, 1 mM threonine, and 20% glycerol. Fractions containing activity were combined, diluted four-fold and applied to an Altex Spherogel TSK DEAE-5PW column (7.5 mm×7.5 cm) equilibrated with 50 mM Tris-HCl pH 7.5 containing 5 mM 2-mercaptoethanol,1 mM lysine, 1 mM threonine and 20% glycerol fractions containing AK activity were combined and diluted four-fold and reapplied to the column equilibrated with the same buffer containing 20 mM aspartate. Fractions with AK activity were concentrated by filtration through Centricon-303 filters (Amicon) and stored at -20° C.
Aspartokinase activity was assayed by the hydroxamate method as described in P. Bryan et al., Biochem Biophys Res Comm 41: 1211-1217 (1970). […]

[2] = system: carrot (Daucus carota L. cv Danvers) aspartokinase form I (AKI, Peak I; lysine-sensitive) of the bifunctional AK-HSDH protein; experiment: Aspartokinase activity, hydroxamate method (first eluting DEAE peak, AKI); assay type: biochemical; settings: for % Control AK activity +thr (10 mM): 10 mM threonine; for % Control AK activity +lys (10 mM): 10 mM lysine
Protocol: Aspartokinase activity was assayed by the hydroxamate method as described in P. Bryan et al., Biochem Biophys Res Comm 41: 1211-1217 (1970). […] The reaction was terminated by the addition of a solution of 0.37 M FeCl3, 0.20 M trichloroacetic aid and 0.72 M HCl. One unit (U) of activity produced 1 umol β-aspartylphosphate hr^-1. Zero time controls were included.

[3] = substrate: N[C@@H](CC(=O)O)C(=O)O; experiment: Aspartokinase activity, hydroxamate method (second eluting DEAE peak, AKII); assay type: biochemical, Daucus carota; settings: other: AKII, second peak (44-48 min) from DEAE pH 6, 37.0 °C
Protocol: as §1
AK was purified by a series of column chromatography steps. The cells were harvested after 5 days and disrupted in a nitrogen bomb as described for HSDH (B. Matthews (1989), supra) except that the threonine concentration was reduced to 1 mM and 1 mM lysine was added to the extraction buffer. The crude extract was concentrated by 60% ammonium sulfate before the first gel filtration through Biogel A-0.5 m (4.5 cm×47 cm) equilibrated with 50 mM Tris-HCl pH 7.5, 10 mM 2-mercaptoethanol, 1 mM EDTA, 1 mM lysine, 1 mM threonine and 20% glycerol. […]

With `C[C@@H](O)[C@H](N)C(=O)O` [thr, threonine] the remaining activity at 10000 µM ([1]; prep ak33II, 10 mM threonine, read-out: % Control AK activity +thr (10 mM)) was 32%, the remaining activity at 10000 µM ([1]; prep ak45II, 10 mM threonine, read-out: % Control AK activity +thr (10 mM)) was 33% and the “% Control AK activity +thr (10 mM)” value ([2]; prep ak32I) was 68 % Control. The “% Control AK activity +thr (10 mM)” value ([2]; prep ak33I) was 71 % Control.

For `NCCCC[C@H](N)C(=O)O` [lys, lysine], the remaining activity at 10000 µM ([1]; read-out: % Control AK activity +lys (10 mM), prep ak33II, 10 mM lysine) was 75%, the remaining activity at 10000 µM ([1]; read-out: % Control AK activity +lys (10 mM), prep ak45II, 10 mM lysine) was 91% and the “% Control AK activity +lys (10 mM)” value ([2]; prep ak32I) was 21 % Control. For the same molecule, the “% Control AK activity +lys (10 mM)” value ([2]; prep ak33I) was 39 % Control.

B1: carrot (Daucus carota L. cv Danvers) aspartokinase form II (AKII, Peak II; threonine-sensitive) of the bifunctional AK-HSDH protein (Daucus carota) (protein)
chain: RGAMWSIHKFGGTCVGSSERIRNVAEIVVEDDSERKLVVVSAMSKVTDMMYDLIYKAQSRDDSYESALDAVMEKHKLTAFDLLDEDDLARFLTRLQHDVITLKAMLRAIYIAGHATESFSDFVVGHGELWSAQLLSFVIRKNGGDCNWMDTRDVLVVNPAGSNQVDPDYLESEKRLEKWFSSNQCQTIVATGFIASTPQNIPTTLKRDGSDFSAAIMGALLRAGQVTIWTDVNGVYSADPRKVSEAVVLKTLSYQEAWEMSYFGANVLHPRTINPVMRYDIPIVIRNIFNLSAPGTMICRESVGETEDGLKLESHVKGFATIDNLALINVEGTGMAGVPGTATAIFGAVKDVGANVIMISQASSEHSICFAVPESEVKAVAKALEARFRQALDAGRLSQVANNPNCSILATVGQKMASTPGVSATLFNALAKANINVRAIAQGCTEYNITVVLSREDCVRALKAVHSRFYLSRTTIAVGIVGPGLIGATLLDQLRDQAAILKENSKIDLRVMGITGSRTMLLSETGIDLSRWREVQKEKGQTAGLEKFVQHVRGNHFIPSTVIVDCTADSEVASHYHDWLCRGIHVITPNKKANSGPLDQYLKLRALQRRSYTHYFYEATVVAGLPIITTLQGLLETGDKILRIEGIFSGTLSYIFNNFKSTTPFSEVVSEAKAAGYTEPDPRDDLAGTDVARKVIILARGSGLKLELSDIPVQSLVPEPLRGIASAEEFLLQLPQFDSDMTRKREDAENAGEVLRYVGVVDAVNQKGVVELKRYKKEHPFAQLSGSDNINAFTTERYNKQPPIIRGPGAGAEVTAGGVFSDILRLASYLGAPS
notes: AK was purified by a series of column chromatography steps; The cells were harvested after 5 days; endogenous in cells; host or cells: carrot (Daucus carota L. cv Danvers) cell suspension culture, protein partly purified by gel filtration and DEAE chromatography
For B1, the Km [3] was 9 mM.

Reference: patent US5451516A, “Bifunctional protein from carrots (Daucus carota) with aspartokinase and homoserine dehydrogenase activities” (priority 1991, dated 1995)
